From publication PMC8528301 (PLoS ONE, 2021)
Like-named read-outs stand apart in the source and are kept apart here.

Tests used:
[1] = system: duodenal mCyp3a and drug efflux transporter mRNA expression; assay: qPCR of Cyp3a and efflux transporter mRNA in duodenum of VD3 sufficient vs deficient C57BL/6 mice; type: in vivo, mouse; conditions: n=3
Description: (§1) To generate VD3 deficient and sufficient mice, day 4–5 estrus (E5-E6) pregnant C57BL/6J female mice from Jackson Laboratories (Bar Harbor, ME) were kept on the VD3 deficient (Harlan catalog no. 5A69, 0 IU of vitamin D) and VD3 sufficient diets, (catalog. No. 5BV8, 3.3 IU of vitamin D) to develop vitamin D deficient and vitamin D sufficient mice, respectively. Pregnant dams were maintained on these diets throughout pregnancy, and after parturition, and pups were maintained on the corresponding diets after weaning as described in [16]. The pups were age matched and both male and female, VD3 deficient and VD3 sufficient mice were used for Cyp3a expression, pharmacokinetic and efficacy studies.
Mouse intestine (duodenum), liver and kidney tissues stored in RNA later at -20°C were used for RNA isolation. Trizol (Ambion Life technologies, CA, USA or Thermo Fisher scientific, CA, USA) was used to extract RNA according to the manufacturers protocol. Sterile Omni tips (OMNI International, GA, USA) were used to homogenize the tissue using Omni tissue homogenizer. 500 ng of RNA was used to generate cDNA using the Thermoscript™ RT-PCR system (Invitrogen ThermoFisher, CA, USA). The cDNA was diluted to a total volume of 70 μL. Primers used for the amplification: […]
Real-time PCR quantification was performed using SYBR GreenER™ qPCR supermix for ABI PRISM Instrument (Life Technologies, Grand Island, NY) according to manufacturer’s instructions. Samples were run at the following conditions: 95°C for 15 min, 40 cycles of 92°C for 30 sec, 60°C for 30 sec, 68°C for 1 min followed by a dissociation step. The relative amounts of mRNAs in each sample were normalized to Villin or Gapdh for intestine samples or Gapdh values for liver and kidney samples to control for quality of the mRNA. Comparative CT (ΔΔCt) method was used to determine quantitative PCR values.
Fig 1 Cyp and transporter gene expression in duodenum of VD3 sufficient and deficient mice. Influence of VD3 deficiency on duodenal mCyp3a11, mCyp3a13, mCyp3a44 (A,B) and drug efflux transporter mRNA expression (C,D) in 12 wk old C57BL/6 mice (A, C)) and hCYP3A4-tg mice (B,D) (male, n = 3 and female, n = 3/strain). Data are expressed as mean (bars) + SD (error bars) fold change in mRNA expression in deficient mice relative to each mRNAs expression in sufficient mice set as one. Villin was used as an internal control to normalize the target gene expression data. Mann-Whitney nonparametric test on GraphPad was used to determine significance between the groups (**p<0.01, *p<0.05).

[2] = no reference given, cited from earlier work
[3] = serum
Description: as §1
To observe the effect of vitamin D status on hCYP3A4 expression, cryopreserved hCYP3A4 transgenic (tg) mouse sperm was used to re-derive the humanized CYP3A4 transgenic mouse model. Human CYP3A4 transgenic mice were obtained from the laboratory of Dr. Frank Gonzalez (Laboratory of Metabolism, Center for Cancer Research, National Cancer Institute, National Institutes of Health, Bethesda). To generate hCYP3A4-Tg VD3 deficient and sufficient mice, E5-E6 hCYP3A4-Tg pregnant female mice were kept on VD3 deficient and VD3 sufficient diets throughout pregnancy and after parturition as described for C57BL/6J mice above. Pups were maintained on the corresponding diets after weaning and were euthanized at 12 weeks of age for tissue collection, blood was collected by cardiac puncture and serum was isolated and stored at -80°C. Tissues such as intestine (duodenum), liver and kidney were harvested and stored in RNA later at -20°C.
Serum samples from all animals in this manuscript were collected but only a few samples were randomly selected across studies and sent to the Veterinary Diagnostic Laboratory at Michigan State University (Lansing, MI) for serum 25-(OH) VD3 analysis.

[4] = female C57BL/6, VD3 deficient vs sufficient = 1, Villin
[5] = male C57BL/6, VD3 deficient vs sufficient = 1, Villin

With C=C1CC[C@H](O)C/C1=C/C=C1\CCC[C@]2(C)[C@@H]([C@H](C)CCCC(C)C)CC[C@@H]12 [VD3, Vitamin D3] as the compound, how does the “avg fold chnge Cyp3a11 mRNA” value [1, 4] read?
The value was 0.2614 fold.

And the “avg fold chnge cyp3a13 mRNA” value [1, 4]?
The value was 0.2206 fold.

And the “avg fold chnge cyp3a25 mRNA” value [1, 4]?
The value was 1.068 fold.

And the “avg fold chnge cyp3a44 mRNA” value [1, 4]?
Its value is 0.139 fold.

What about the “avg fold change Cyp3a11 mRNA” value ([1]; male C57BL/6, VD3 deficient (GCD) vs VD3 sufficient = 1, normalised to Villin) of the same compound?
The value was 0.299 fold.

What about the “avg fold change Cyp3a13 mRNA” value [1, 5] of the same compound?
Its value is 0.1229 fold.

And the “avg fold change Cyp3a25 mRNA” value [1, 5]?
The value was 0.2366 fold.

And the “avg fold change Cyp3a41 mRNA” value [1, 5]?
The value was 0.2185 fold.

What about the “avg fold change Cyp3a44 mRNA” value [1, 5] of the same compound?
The value was 0.1467 fold.

What about the “avg fold change bcrp mRNA” value [1, 5] of the same compound?
The value was 0.5071 fold.

What about the “avg fold change mPXR mRNA” value [1, 5] of the same compound?
Its value is 0.5697 fold.

What about the “avg fold change mVDR mRNA” value [1, 5] of the same compound?
Its value is 0.3209 fold.

And the “avg fold change mdr1a mRNA” value [1, 5]?
The value was 0.5457 fold.

Which half-life ([2]; serum 1,25 (OH)2 VD3, biologically short lived) does the source give for C=C1/C(=C\C=C2/CCC[C@]3(C)[C@@H]([C@H](C)CCCC(C)(C)O)CC[C@@H]23)C[C@@H](O)C[C@@H]1O [1,25 (OH)2 VD3] here?
The half-life was ~ 15 hours.

Which results are given for C=C1CC[C@H](O)C/C1=C/C=C1\CCC[C@]2(C)[C@@H]([C@H](C)CCCC(C)(C)O)CC[C@@H]12 [25-(OH) VD3]?
half-life ([2]; serum 25(OH)VD3): 15 days; Mean (25-(OH) VD3 ([3]; C57BL/6, VD3 Deficient, n=6): 12 nmol/L; Mean (25-(OH) VD3 ([3]; C57BL/6, VD3 Sufficient, n=2): 324.50 nmol/L; Mean (25-(OH) VD3 ([3]; hCYP3A4-tg, VD3 Deficient, n=4): 14.75 nmol/L; Mean (25-(OH) VD3 ([3]; hCYP3A4-tg, VD3 Sufficient, n=4): 219 nmol/L
